Experiments:
EL4 mouse lymphoma tumor = experiment: Tumor vascular labeling and immunohistochemistry (EL4 tumors); format: in vivo
Description: Tumor vascular labeling and immunohistochemistry. Mice were anesthetized with Isoflurane. FITC-labeled Lycopersicon esculentum Lectin (150 μg in 150 μl of 0.9% NaCl; Vector Laboratories) was injected i.v. and allowed to circulate for 5 min before systemic perfusion. The vasculature was perfused transcardially with 1% PFA in PBS for 3 min. Tumors were removed and post fixed by immersion in the same fixative for 2 hr, followed by an incubation in 30% sucrose overnight for cryoprotection, then embedded in OCT. Sections (4 μm thickness) were stained with anti-mouse CD31 (1:50, BD Pharmingen), followed by Alexa 594 goat anti-rat IgG (1:800, Molecular Probes).
In light of the tumor growth inhibition, we used the EL4 mouse lymphoma tumor model for vascular histology studies.
Since in vitro blocking of DLL4/Notch pathway impaired the formation of lumen-like structure by ECs (FIG. 8a), it was investigated whether treatment with anti-DLL4 Mab caused similar defect in the tumor vasculature and affected efficient blood flow. […] Given the critical role of DLL4/Notch signaling in AV differentiation, both in embryos and early postnatal retinas, anti-DLL4 Mab could impact cell fate specification of tumor ECs and cause defective directional blood flow. […] Further studies utilizing vascular imaging techniques are needed to gain insights into the precise vascular defects.

human breast cancer MX-1 = experiment: Tumor model MX-1; format: in vivo, mouse; conditions: 5 mg/kg, IP, twice weekly after establishment of the tumors
Description: (§1) Tumor models. Beige nude female mice of 8- to 10-week-old were used. To obtain subcutaneous tumors, mice were injected with 0.1 ml cell suspension containing 50% matrigel (BD Bioscience) into the right posterior flank. 5×10^6 human colon cancer HM7 cells, 10×10^6 human colon carcinoma Colo205 cells, 10×10^6 human lung carcinoma Calu6 cells, 10×10^6 human lung carcinoma MV-522 cells, 10×10^6 mouse leukemia WEHI-3 cells, 10×10^6 mouse lymphoma EL4 cells, 10×10^6 human ovarian cancer SK-OV-3 X1 cells, 10×06 mouse lung cancer LL2 cells, 10×10^6 leukemia/lymphoma EL4 cells, or 10×10^6 non-small lung cancer H1299 cells were injected into each mouse. For human melanoma MDA-MB-435 model, mice were injected into the mammary fat pad with 0.1 ml cell (5×10^6) suspension containing 50% matrigel. […] For the following tumor models, each test mouse received a subcutaneous tumor fragment (1 mm^3) implanted in the right flank: non-small lung cancer SKMES-1, human breast cancer MX-1, human colorectal cancer SW620 and human adenocarcinoma LS174T. The tumor growth was quantitated by caliper measurements. Tumor volume (mm^3) was determined by measuring the length (l) and width (w) and calculating the volume (V=lw2/2). 10 to 15 animals were included in each group. Statistical comparison of treatment groups was performed using two-tailed Student's t-test. […]

[1] = Tolerability in tumor-bearing mice; format: in vivo, mouse; conditions: 10 mg/kg twice per week for up to 8 weeks
Text: Thus, DLL4/Notch signaling is critical during active angiogenesis, but plays a less important role in normal vessel maintenance.

[2] = biological target: T1, endogenously expressed DLL4 (Homo sapiens, UniProt Q9NR61); experiment: FACS analysis of HUVECs transfected with control or DLL4-specific siRNA; conditions: antibody 2 μg/ml, binding reduced with DLL4 siRNA
T1 construct: endogenous in cells; host or cells: HUVEC
Description: RNA interference. SMARTpool small interfering RNA (siRNA) duplexes targeting human DLL4 and Si Control Non-Target siRNA #2 were purchased from Dharmacon. Transfection of siRNR duplexes (50 nM) was done with HUVECs at 40% confluency using OptiMEM-1® and Lipfectamine™ 2000 (Invitrogen). FACS analysis was done 48 hr after siRNA transfection. The sequences of the 4 anti-DLL4 SMART pool siRNA were as follows:
FACS analysis of HUVECs transfected with control or DLL4-specific siRNA.

[3] = test system: human melanoma MDA-MB-435; experiment: Tumor model MDA-MB-435 (mammary fat pad); format: in vivo, mouse; conditions: treatment started 14 days post tumor cell injection
Description: as §1

VEGFR2 = experiment: Real-time quantitative RT-PCR of VEGFR2 expression in HUVECs; format: cell-based, human; conditions: 3-D fibrin gel culture of HUVECs (7 d); anti-DLL4 antibody 5 μg/ml, DBZ 0.08 μM
Description: RNA extraction and Real-time quantitative RT-PCR. Extraction of total RNA from HUVECs in 2-D culture was done using RNeasy® Mini Kit (Qiagen) as per instructions of the manufacturer. To extract total RNA from HUVECs growing in fibrin gels, fibrin gels were treated with 10× trypsin-EDTA (Gibco) for 5 min to remove the top layer fibroblasts, followed by neutralization with 10% FBS in PBS. The gel clots were then removed from tissue culture wells and subjected to centrifugation (10K for 5 min) in microtubes to remove excessive fluid. The resulting gel “pellets” were lysed with lysis buffer (RNeasy® Mini Kit), and further processed as with HUVECs in 2-D culture. The quality of RNA was assessed using RNA 6000 Nano Chips and the Agilent 2100 Bioanalyzer (Agilent Technologies). Real-time quantitative RT-PCR reactions were done in triplicate using 7500 Real Time PCR System (Applied Biosystems). Human GAPDH was used as reference gene for normalization. The expression levels are expressed as the mean (±SEM) fold mRNA changes relative to control from 3 separate determinations. The forward and reverse primer and probe sequences for VEGFR2, TGFβ2 and GAPDH were as follows.
Therefore, while VEGF can act upstream of DLL4/Notch pathway, DLL4/Notch is capable of fine-tuning the response through negatively regulating VEGFR2 expression.

[4] = test system: human colorectal cancer SW620; experiment: Tumor model SW620; format: in vivo, mouse; conditions: 5 mg/kg, IP, twice weekly after establishment of the tumors
Description: as §1

[5] = test system: mouse lung cancer LL2 cells; experiment: Tumor model LL2; format: in vivo; conditions: 5 mg/kg, IP, twice weekly after establishment of the tumors
Description: as §1

Substance: YW26.82: affinity matured anti-DLL4 monoclonal antibody; HVR-H1/H2/H3 SEQ ID NO:1, 8, 9; HVR-L1/L2/L3 SEQ ID NO:10, 11, 18
- endothelial cell density (anti-CD31) in tumor sections (EL4 mouse lymphoma tumor; EL4 tumors): dramatic increase in endothelial cell density
- FITC-lectin labeling of tumor vessels (vascular perfusion) (EL4 mouse lymphoma tumor; systemic perfusion with FITC-lectin, EL4 tumor sections): marked reduction of lectin labeling of tumor vessels
- tumor growth, single agent (human breast cancer MX-1): inhibited tumor growth alone
- weight loss or animal death [1]: no apparent weight loss or animal death
- binding to endogenously expressed DLL4 by FACS [2]: specifically bound to endogenously expressed DLL4
- tumor growth [3]: inhibited tumors growing in mouse mammary fat pads
- VEGFR2 expression on Notch blockade (VEGFR2): upregulation of VEGFR2
- tumor growth, single agent [4]: inhibited tumor growth alone
- tumor growth, single agent [5]: inhibited tumor growth alone
